As usually defined, the Km is the concentration of substrate that gives half-maximal velocity.

The values below come from publication PMC11121200 (Acta Pharmaceutica Sinica. B, 2024).

Experiment [1] deals with CtMaT1. Put plainly: HPLC initial-rate kinetics, nonlinear regression. The settings on record: 2 mmol/L malonyl-CoA as co-substrate, 1 mmol/L DTT, 100 mmol/L potassium phosphate pH 6.0, 30 °C. It is filed as biochemical, Cistanche tubulosa.
Experiment [2] deals with T1, MatB (Arabidopsis thaliana, UniProt Q8H151).
T1 sequence (Q8H151 1-608): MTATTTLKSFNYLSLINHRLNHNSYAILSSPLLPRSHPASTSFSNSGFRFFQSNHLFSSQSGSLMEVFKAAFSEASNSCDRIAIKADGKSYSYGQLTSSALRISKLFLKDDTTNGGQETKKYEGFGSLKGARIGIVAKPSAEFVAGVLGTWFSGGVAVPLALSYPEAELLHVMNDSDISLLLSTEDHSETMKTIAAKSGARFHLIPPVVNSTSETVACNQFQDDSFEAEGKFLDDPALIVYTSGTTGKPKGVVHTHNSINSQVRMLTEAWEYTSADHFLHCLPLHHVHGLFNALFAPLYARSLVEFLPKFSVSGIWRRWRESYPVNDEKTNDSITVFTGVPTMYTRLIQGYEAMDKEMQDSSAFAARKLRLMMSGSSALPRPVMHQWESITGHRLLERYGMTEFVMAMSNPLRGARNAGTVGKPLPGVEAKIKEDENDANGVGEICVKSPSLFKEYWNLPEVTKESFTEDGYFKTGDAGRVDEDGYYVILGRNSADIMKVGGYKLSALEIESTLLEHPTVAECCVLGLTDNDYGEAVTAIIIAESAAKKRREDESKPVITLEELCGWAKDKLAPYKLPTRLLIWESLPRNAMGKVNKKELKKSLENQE
Put plainly: HPLC detection of malonyl-CoA formed. It is filed as biochemical. The settings on record: 1.5 mmol/L CoA, 3 mmol/L ATP, 5 mmol/L MgCl2, 1 mmol/L DTT, potassium phosphate pH 6.0, 30 °C, 12 h.

For experiment [3], the target named is T1, MatB. The conditions noted are these: 1.5 mmol/L CoA, 3 mmol/L ATP, 5 mmol/L MgCl2, 1 mmol/L DTT, potassium phosphate pH 6.0, 30 °C, 12 h.

As for `OC[C@H]1O[C@@H](Oc2cc3c(O)cc(O)cc3[o+]c2-c2ccc(O)c(O)c2)[C@H](O)[C@@H](O)[C@@H]1O` [compound 1, cyanidin 3-glucoside], in experiment [1], the Km was found to be 685 ± 25.3 µM.

For `OC[C@H]1O[C@@H](OCCc2ccc(O)cc2)[C@H](O)[C@@H](O)[C@@H]1O` [compound 2, salidroside], the Km in experiment [1] came out at 757 ± 58.2 µM.

As to `O=C(O)CC(=O)O` [malonic acid], in experiment [2], the “HPLC detection of malonyl-CoA formed” value is “made directly from malonic acid in the presence of CoA, ATP, and MatB proteins”.

With `CC(C(=O)O)C(=O)O` [methylmalonic acid], in experiment [3], the “HPLC detection of methylmalonyl-CoA formed” value was “MatB could also conduct the synthesis of methyl-MLC”.
